Results from ChEMBL document CHEMBL1201862, “PubChem BioAssay data set” (2004).
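All cell lines were grown in 96-well plates and treated with compound for 48 hours. The concentration for 50% growth inhibition is given as GI50.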 Active and inactive are the calls of the source. Cut-off read from the data, not from the text of the source: active = GI50 up to about 1.1 µM and inactive = higher.

Experiments:
Test in all cases: growth of human tumour cells (NCI), 48 h
A498 = system: A498
A549 = system: A549
ACHN = system: ACHN
BT-549 = system: BT-549
CAKI-1 = system: CAKI-1
COLO 205 = system: COLO 205
DU-145 = system: DU-145
EKVX = system: EKVX
HCT-116 = system: HCT-116
HCT-15 = system: HCT-15
HL-60 = system: HL-60
HOP-62 = system: HOP-62
HOP-92 = system: HOP-92
HT-29 = system: HT-29
Hs-578T = system: Hs-578T
IGROV-1 = system: IGROV-1
K562 = system: K562
KM12 = system: KM12
LOX IMVI = system: LOX IMVI
M14 = system: M14
MCF7 = system: MCF7
MDA-MB-231 = system: MDA-MB-231
MDA-MB-435 = system: MDA-MB-435
MDA-N = system: MDA-N
MOLT-4 = system: MOLT-4
Malme-3M = system: Malme-3M
NCI-H23 = system: NCI-H23
NCI-H460 = system: NCI-H460
NCI-H522 = system: NCI-H522
NCI/ADR-RES = system: NCI/ADR-RES
OVCAR-3 = system: OVCAR-3
OVCAR-4 = system: OVCAR-4
OVCAR-5 = system: OVCAR-5
OVCAR-8 = system: OVCAR-8
PC-3 = system: PC-3
RPMI-8226 = system: RPMI-8226
RXF 393 = system: RXF 393
SF-268 = system: SF-268
SF-295 = system: SF-295
SF-539 = system: SF-539
SK-MEL-28 = system: SK-MEL-28
SK-MEL-2 = system: SK-MEL-2
SK-MEL-5 = system: SK-MEL-5
SK-OV-3 = system: SK-OV-3
SN12C = system: SN12C
SNB-19 = system: SNB-19
SNB-75 = system: SNB-75
SR = system: SR
SW-620 = system: SW-620
T47D = system: T47D
TK-10 = system: TK-10
U-251 = system: U-251
UACC-257 = system: UACC-257
UACC-62 = system: UACC-62
UO-31 = system: UO-31

Measured: GI50

Cn1c(-c2ccccc2)c2cc3nc4ccccc4nc3cc2c1-c1ccccc1
4.65 µM: HCT-15
inactive: A498 19.6 µM | A549 3.94 µM | ACHN 17.7 µM | BT-549 21.6 µM | CAKI-1 43.3 µM | COLO 205 2.26 µM | DU-145 30.3 µM | EKVX 31 µM | HCT-116 23.2 µM | HL-60 20.1 µM | HOP-62 10.2 µM | HOP-92 25.3 µM | HT-29 17.8 µM | Hs-578T 10.6 µM | IGROV-1 17.5 µM | K562 17.3 µM | KM12 11.6 µM | LOX IMVI 14 µM | M14 6.21 µM | MCF7 12.1 µM | MDA-MB-231 24.2 µM | MDA-MB-435 5.79 µM | MDA-N 5.87 µM | MOLT-4 21 µM | Malme-3M 30.1 µM | NCI-H23 7.14 µM | NCI-H460 4.19 µM | NCI-H522 15.2 µM | NCI/ADR-RES 23.2 µM | OVCAR-3 20.4 µM | OVCAR-4 30 µM | OVCAR-5 52.2 µM | OVCAR-8 22.1 µM | PC-3 14.7 µM | RPMI-8226 12.1 µM | RXF 393 22.3 µM | SF-268 19 µM | SF-295 14.4 µM | SF-539 17.4 µM | SK-MEL-28 34.9 µM | SK-MEL-2 17.7 µM | SK-MEL-5 1.67 µM | SK-OV-3 21.6 µM | SN12C 13.3 µM | SNB-19 20.2 µM | SNB-75 26.5 µM | SR 4.56 µM | SW-620 15.8 µM | T47D 24.5 µM | TK-10 41 µM | U-251 19.8 µM | UACC-257 56.2 µM | UACC-62 11.7 µM | UO-31 22.5 µM
